Measurements reported in patent publication US8148391B2 (Cephalon, Inc., priority 2006, dated 2012).
Where two headings read alike, the source gives them in different places.

Legend:
[1] = target: T1, baculovirus-expressed ALK (Homo sapiens, UniProt Q9UM73); assay: ALK Kinase Assay (ELISA-type, time-resolved fluorescence); type: biochemical
T1 construct: host or cells: baculovirus expression system
How it was run: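 Substrate coating: phospholipase C-γ, 10 μg/mL in TBS. Kinase step: 30 ng/ml ALK, 15 min, 37° C. Detection and analysis: Eu-N1 PT66 antibody, with IC50 fitted as a sigmoidal variable-slope dose-response curve.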

[2] = target: T2, c-Met (cytoplasmic domain) (Homo sapiens, UniProt P08581); assay: c-Met Kinase Assay (same methods as for ALK, with modifications); type: biochemical
T2 construct: 10 ng/mL c-Met (cytoplasmic domain, Invitrogen Corporation #PV3143); purchased Invitrogen Corporation PV3143
T2 sequence (P08581 956-1390 limits assumed): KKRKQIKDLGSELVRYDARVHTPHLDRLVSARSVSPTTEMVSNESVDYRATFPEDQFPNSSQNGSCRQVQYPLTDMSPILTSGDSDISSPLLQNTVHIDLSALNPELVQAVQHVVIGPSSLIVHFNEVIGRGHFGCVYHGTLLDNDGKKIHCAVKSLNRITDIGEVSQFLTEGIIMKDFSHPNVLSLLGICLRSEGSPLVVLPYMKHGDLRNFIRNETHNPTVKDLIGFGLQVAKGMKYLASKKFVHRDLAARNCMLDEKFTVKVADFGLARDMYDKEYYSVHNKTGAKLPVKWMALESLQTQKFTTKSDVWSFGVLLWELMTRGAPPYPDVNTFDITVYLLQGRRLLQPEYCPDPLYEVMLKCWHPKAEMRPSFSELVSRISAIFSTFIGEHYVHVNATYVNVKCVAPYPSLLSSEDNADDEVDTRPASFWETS
How it was run: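 Wells were coated with 10 μg/mL phospholipase C-γ substrate in TBS, and reactions were started with 10 ng/mL c-Met cytoplasmic domain and run at 37° C for 15 minutes. Phosphorylated product was detected with Eu-N1-labeled PT66 antibody. IC50 values came from sigmoidal variable-slope fits of percent inhibition versus log compound concentration.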

[3] = ALK kinase inhibition, 1 μM ATP (Km level), read-out: ALK Activity
[4] = c-Met kinase inhibition, 1 μM ATP (Km level), read-out: cMet Activity
[5] = 1 μM ATP (Km level), read-out: ALK Activity (ALK Kinase Inhibition, IC50)
[6] = 1 μM ATP (Km level), read-out: cMet Activity (c-Met Kinase Inhibition, IC50)
[7] = ALK kinase inhibition, 1 μM ATP, read-out: ALK Activity
[8] = c-Met kinase inhibition, 1 μM ATP, read-out: cMet Activity
[9] = 1 μM ATP (Km level), 30 ng/ml ALK, 37° C., 15 minutes, read-out: ALK Activity (ALK kinase inhibition, IC50 class)
[10] = 1 μM ATP (Km level), 10 ng/mL c-Met, read-out: cMet Activity (c-Met kinase inhibition, IC50 class)

T1 sequence (Q9UM73 19-1620): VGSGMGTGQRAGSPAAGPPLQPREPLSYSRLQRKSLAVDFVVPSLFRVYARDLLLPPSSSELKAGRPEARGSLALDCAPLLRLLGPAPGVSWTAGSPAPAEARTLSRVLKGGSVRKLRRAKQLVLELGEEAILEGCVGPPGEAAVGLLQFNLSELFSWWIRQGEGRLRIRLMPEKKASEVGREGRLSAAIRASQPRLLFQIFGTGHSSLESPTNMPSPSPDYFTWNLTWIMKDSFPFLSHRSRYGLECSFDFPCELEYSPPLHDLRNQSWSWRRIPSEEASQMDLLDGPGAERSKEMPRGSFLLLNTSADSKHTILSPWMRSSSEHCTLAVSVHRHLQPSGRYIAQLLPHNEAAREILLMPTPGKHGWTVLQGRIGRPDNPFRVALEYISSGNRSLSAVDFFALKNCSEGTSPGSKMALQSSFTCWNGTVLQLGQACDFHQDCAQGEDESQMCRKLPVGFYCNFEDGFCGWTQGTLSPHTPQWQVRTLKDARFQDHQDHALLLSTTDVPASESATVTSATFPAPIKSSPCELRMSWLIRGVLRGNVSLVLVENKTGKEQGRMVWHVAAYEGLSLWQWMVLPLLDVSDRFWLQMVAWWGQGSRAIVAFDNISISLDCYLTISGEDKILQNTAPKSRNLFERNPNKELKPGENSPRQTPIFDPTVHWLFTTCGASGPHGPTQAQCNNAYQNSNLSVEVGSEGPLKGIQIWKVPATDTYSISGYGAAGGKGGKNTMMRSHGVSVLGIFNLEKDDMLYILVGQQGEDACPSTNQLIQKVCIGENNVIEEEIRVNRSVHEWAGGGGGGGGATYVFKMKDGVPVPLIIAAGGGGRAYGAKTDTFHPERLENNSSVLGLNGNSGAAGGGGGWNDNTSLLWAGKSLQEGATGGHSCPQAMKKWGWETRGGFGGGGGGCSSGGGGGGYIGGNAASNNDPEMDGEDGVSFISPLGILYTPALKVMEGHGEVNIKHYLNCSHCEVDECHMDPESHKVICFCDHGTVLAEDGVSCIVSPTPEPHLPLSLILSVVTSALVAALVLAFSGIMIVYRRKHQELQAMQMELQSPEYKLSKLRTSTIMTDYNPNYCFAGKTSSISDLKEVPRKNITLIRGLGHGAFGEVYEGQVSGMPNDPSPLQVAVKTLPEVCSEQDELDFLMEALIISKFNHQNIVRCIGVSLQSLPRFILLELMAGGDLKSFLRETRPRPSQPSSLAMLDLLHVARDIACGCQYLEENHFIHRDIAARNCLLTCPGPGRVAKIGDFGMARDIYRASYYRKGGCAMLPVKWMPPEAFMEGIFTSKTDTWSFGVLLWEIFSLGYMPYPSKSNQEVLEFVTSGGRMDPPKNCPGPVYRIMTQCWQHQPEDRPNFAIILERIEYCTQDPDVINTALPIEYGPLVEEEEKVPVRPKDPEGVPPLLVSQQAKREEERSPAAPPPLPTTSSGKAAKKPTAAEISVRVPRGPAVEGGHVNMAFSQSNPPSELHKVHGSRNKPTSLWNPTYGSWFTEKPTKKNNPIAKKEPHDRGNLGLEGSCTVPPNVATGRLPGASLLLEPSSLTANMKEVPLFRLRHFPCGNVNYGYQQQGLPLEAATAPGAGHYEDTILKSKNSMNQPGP

CNC(=O)c1ccccc1Nc1nc(Nc2ccc3c(c2)COCCN3C)ncc1Cl [Example 15, 2-[5-Chloro-2-(1-methyl-1,2,3,5-tetrahydro-benzo[e][1,4]oxazepin-7-ylamino)-pyrimidin-4-ylamino]-N-methyl-benzamide]
IC50 [1, 3]: < 0.1 µM | IC50 [2, 4]: < 0.1 µM

COc1cc2c(cc1Nc1ncc(Cl)c(NC3C4C=CC(C4)C3C(N)=O)n1)CCN(CC(=O)N(C)C)CC2 (stereo not drawn) [Example 260, (2-exo,3-exo)-3-[5-Chloro-2-(3-dimethylcarbamoylmethyl-8-methoxy-2,3,4,5-tetrahydro-1H-benzo[d]azepin-7-ylamino)-pyrimidin-4-ylamino]-bicyclo[2.2.1]hept-5-ene-2-carboxylic acid amide]
IC50 [1, 3]: < 0.1 µM | IC50 [2, 4]: > 10 µM

CC1(C)CCCOc2c(Nc3ncc(Cl)c(N[C@@H]4CCCC[C@H]4NS(C)(=O)=O)n3)cccc21 [Example 875, N-{(1R,2R)-2-[5-Chloro-2-(5,5-dimethyl-2,3,4,5-tetrahydro-benzo[b]oxepin-9-ylamino)-pyrimidin-4-ylamino]-cyclohexyl}-methanesulfonamide]
IC50 [1, 5]: < 0.1 µM | IC50 [2, 6]: > 10 µM

CCNC(=O)c1ccccc1Nc1nc(Nc2cc3c(cc2OC)CCN(CC(C)(F)F)CC3)ncc1Cl [Example 788, 2-{5-Chloro-2-[3-(2,2-difluoro-propyl)-8-methoxy-2,3,4,5-tetrahydro-1H-benzo[d]azepin-7-ylamino]-pyrimidin-4-ylamino}-N-ethyl-benzamide]
IC50 [1, 5]: < 0.1 µM | IC50 [2, 6]: > 10 µM

CNC(=O)c1cccc(F)c1Nc1nc(Nc2ccc3c(c2)CCCC(=O)N3CCOC)ncc1Br [Example 1472, 2-{5-Bromo-2-[1-(2-methoxy-ethyl)-2-oxo-2,3,4,5-tetrahydro-1H-benzo[b]azepin-7-ylamino]-pyrimidin-4-ylamino}-3-fluoro-N-methyl-benzamide]
IC50 [1, 7]: < 0.1 µM | IC50 [2, 8]: < 0.1 µM

COc1ccc(Nc2nc(Nc3cc4c(cc3OC)CCN(CC(=O)N(C)C)CC4)ncc2Cl)c(S(=O)(=O)C(C)C)c1 [Example 1162, 2-(7-{5-Chloro-4-[4-methoxy-2-(propane-2-sulfonyl)-phenylamino]-pyrimidin-2-ylamino}-8-methoxy-1,2,4,5-tetrahydro-benzo[d]azepin-3-yl)-N,N-dimethyl-acetamide]
IC50 [1, 9]: < 0.1 µM | IC50 [2, 10]: > 10 µM

CNC(=O)c1cc(C)cc(C)c1Nc1nc(Nc2ccc3c(c2)CCN(CCOC)CC3)ncc1Cl [Example 317, 2-{5-Chloro-2-[3-(2-methoxy-ethyl)-2,3,4,5-tetrahydro-1H-benzo[d]azepin-7-ylamino]-pyrimidin-4-ylamino}-3,5,N-trimethyl-benzamide]
IC50 [1, 3]: 0.1 to 1 µM | IC50 [2, 4]: 0.1 to 1 µM

COCCN1CCc2ccc(Nc3ncc(Cl)c(Nc4ccccc4C(=O)NCCN4CCN(C)CC4)n3)cc2CC1 [Example 1402, 2-{5-Chloro-2-[3-(2-methoxy-ethyl)-2,3,4,5-tetrahydro-1H-benzo[d]azepin-7-ylamino]-pyrimidin-4-ylamino}-N-[2-(4-methyl-piperazin-1-yl)-ethyl]-benzamide]
IC50 [1, 9]: 0.1 to 1 µM | IC50 [2, 10]: 1 to 10 µM

CS(=O)(=O)N[C@@H]1CCCC[C@H]1Nc1nc(Nc2ccc3c(c2)C2CCC3CN(C(=O)C(F)(F)F)C2)ncc1Cl (mixture of isomers) [Example 292, N-((1R,2R)-2-{5-Chloro-2-[10-(2,2,2-trifluoro-acetyl)-10-aza-tricyclo[6.3.2.0*2,7*]trideca-2,4,6-trien-4-ylamino]-pyrimidin-4-ylamino}-cyclohexyl)-methanesulfonamide]
IC50 [1, 3]: < 0.1 µM | IC50 [2, 4]: 1 to 10 µM

CNC(=O)c1scc(C)c1Nc1nc(Nc2ccc3c(c2)CNC(=O)CC3)ncc1Cl [Example 1795, 3-[5-Chloro-2-(3-oxo-2,3,4,5-tetrahydro-1H-benzo[c]azepin-8-ylamino)-pyrimidin-4-ylamino]-4-methyl-thiophene-2-carboxylic acid methylamide]
IC50 [1, 7]: 1 to 10 µM | IC50 [2, 8]: < 0.1 µM

C#CCNC(=O)c1cccc(F)c1Nc1nc(Nc2ccc3c(c2)NC(=O)C(NC(C)=O)CC3(C)C)ncc1Cl (stereo not shown) [Example 1290, 2-[2-(3-Acetylamino-5,5-dimethyl-2-oxo-2,3,4,5-tetrahydro-1H-1-benzazepin-8-ylamino)-5-chloro-pyrimidin-4-ylamino]-3-fluoro-N-prop-2-ynyl-benzamide]
IC50 [1, 9]: 1 to 10 µM | IC50 [2, 10]: < 0.1 µM

CNC(=O)c1ccccc1Nc1nc(Nc2ccc3c(c2)C2CCC(C3)N2CCOC)ncc1Cl (stereo not shown) [Example 68, 2-{5-Chloro-2-[12-(2-methoxy-ethyl)-12-aza-tricyclo[7.2.1.0*2,7*]dodeca-2(7),3,5-trien-4-ylamino]-pyrimidin-4-ylamino}-N-methyl-benzamide]
IC50 [1, 3]: < 0.1 µM | IC50 [2, 4]: < 0.1 µM

COc1ccc2c(c1Nc1ncc(Cl)c(N[C@@H]3CCCC[C@H]3NS(C)(=O)=O)n1)CN(Cc1ccccc1)CC(=O)N2 [Example 1654, N-{(1R,2R)-2-[2-(4-Benzyl-7-methoxy-2-oxo-2,3,4,5-tetrahydro-1H-benzo[e][1,4]diazepin-6-ylamino)-5-chloro-pyrimidin-4-ylamino]-cyclohexyl}-methanesulfonamide]
IC50 [1, 7]: 1 to 10 µM | IC50 [2, 8]: > 10 µM

CNC(=O)c1ccccc1Nc1nc(Nc2ccc3c(c2)CN(CCOC)CCS3)ncc1Cl [Example 522, 2-{5-Chloro-2-[8-(2-methoxy-ethyl)-6,7,8,9-tetrahydro-5-thia-8-aza-benzocyclohepten-2-ylamino]-pyrimidin-4-ylamino}-N-methyl-benzamide]
IC50 [1, 5]: < 0.1 µM | IC50 [2, 6]: 0.1 to 1 µM

CN1C(=O)CCCc2cc(Nc3ncc(Cl)c(Nc4ccccc4-c4nccn4C)n3)ccc21 [Example 995, 7-{5-Chloro-4-[2-(1-methyl-1H-imidazol-2-yl)-phenylamino]-pyrimidin-2-ylamino}-1-methyl-1,3,4,5-tetrahydro-benzo[b]azepin-2-one]
IC50 [1, 5]: < 0.1 µM | IC50 [2, 6]: 0.1 to 1 µM

CCN1C(=O)C(NC(C)=O)CC(C)(C)c2ccc(Nc3ncc(Cl)c(Nc4c(F)cccc4C(=O)NC)n3)cc21 (stereo not shown) [Example 1643, 2-[2-(3-Acetylamino-1-ethyl-5,5-dimethyl-2-oxo-2,3,4,5-tetrahydro-1H-benzo[b]azepin-8-ylamino)-5-chloro-pyrimidin-4-ylamino]-3-fluoro-N-methyl-benzamide]
IC50 [1, 7]: 0.1 to 1 µM | IC50 [2, 8]: < 0.1 µM

CCN1C(=O)CCCc2c1ccc(Nc1ncc(Cl)c(Nc3ccc(OC)cc3C(=O)NC)n1)c2OC [Example 607, 2-[5-Chloro-2-(1-ethyl-6-methoxy-2-oxo-2,3,4,5-tetrahydro-1H-benzo[b]azepin-7-ylamino)-pyrimidin-4-ylamino]-5-methoxy-N-methyl-benzamide]
IC50 [1, 5]: < 0.1 µM | IC50 [2, 6]: 1 to 10 µM

CCN1CCOc2cc(Nc3ncc(Cl)c(Nc4ccccc4C(=O)NC)n3)ccc2C1=O [Example 515, 2-[5-Chloro-2-(4-ethyl-5-oxo-2,3,4,5-tetrahydro-benzo[f][1,4]oxazepin-8-ylamino)-pyrimidin-4-ylamino]-N-methyl-benzamide]
IC50 [1, 5]: < 0.1 µM | IC50 [2, 6]: < 0.1 µM

2-[5-Chloro-2-(4-oxo-1,2,3,4,5,6-hexahydro-benzo[b][1,5]diazocin-8-ylamino)-pyrimidin-4-ylamino]-N-methyl-benzenesulfonamide [Example 1304]
IC50 [1, 9]: < 0.1 µM | IC50 [2, 10]: 0.1 to 1 µM

CNC(=O)c1ccccc1Nc1nc(Nc2ccc3c(c2)N(C)CCNC3=O)ncc1Cl [Example 414, 2-[5-Chloro-2-(1-methyl-5-oxo-2,3,4,5-tetrahydro-1H-benzo[e][1,4]diazepin-8-ylamino)-pyrimidin-4-ylamino]-N-methylbenzamide]
IC50 [1, 3]: < 0.1 µM | IC50 [2, 4]: < 0.1 µM

CCN1C(=O)C(N(C)C)CCc2c1ccc(Nc1ncc(Cl)c(Nc3ccccc3-n3cccn3)n1)c2OC (stereo not shown) [Example 1349, 7-[5-Chloro-4-(2-pyrazol-1-yl-phenylamino)-pyrimidin-2-ylamino]-3-dimethylamino-1-ethyl-6-methoxy-1,3,4,5-tetrahydro-benzo[b]azepin-2-one]
IC50 [1, 9]: < 0.1 µM | IC50 [2, 10]: > 10 µM

COc1cc2c(cc1Nc1ncc(Cl)c(Nc3ccccc3S(=O)(=O)N(C)C)n1)CCN(CCOC(=O)CN)CC2 [Example 1542, Amino-acetic acid 2-{7-[5-chloro-4-(2-dimethylsulfamoyl-phenylamino)-pyrimidin-2-ylamino]-8-methoxy-1,2,4,5-tetrahydro-benzo[d]azepin-3-yl}-ethyl ester]
IC50 [1, 7]: < 0.1 µM | IC50 [2, 8]: 1 to 10 µM

COc1c(Nc2ncc(Cl)c(N[C@H]3[C@@H](C(N)=O)[C@@H]4C=C[C@H]3C4)n2)ccc2c1CCC(NCC(F)(F)F)CC2 (stereo partly drawn) [Example 679, (1S,2S,3R,4R)-3-{5-Chloro-2-[1-methoxy-7-(2,2,2-trifluoro-ethylamino)-6,7,8,9-tetrahydro-5H-benzocyclohepten-2-ylamino]-pyrimidin-4-ylamino}-bicyclo[2.2.1]hept-5-ene-2-carboxylic acid amide]
IC50 [1, 5]: < 0.1 µM | IC50 [2, 6]: > 10 µM
